In US20210332024A1, “MODULATORS OF PIN1 ACTIVITY AND USES THEREOF” (Yeda Research and Development Co. Ltd., priority 2019, published 2021):

Legend:
[1] = Thiol reactivity assay (DTNB); assay type: physicochemical; conditions: 200 μM compound, pH 7.4, 37° C.
Experimental: 50 μM DTNB (dithionitrobenzoic acid) was incubated with 200 μM TCEP (tris(2-carboxytehyl)phosphine) in 20 mM sodium phosphate buffer (pH 7.4) with 150 mM NaCl, for 5 minutes at room temperature, in order to obtain TNB^2− (thionitrobenzoate dianion). 200 μM compounds were subsequently added to the TNB^2−, followed by immediate UV absorbance measurement at 412 nm (at 37° C.). The UV absorbance was acquired every 15 minutes for 7 hours. The assay was performed in a 384-well plate using a Spark™ 10M plate reader (Tecan). Background absorbance of compounds was subtracted by measuring the absorbance at 412 nm of each compound under the same conditions without DTNB. Compounds were measured in triplicates. The data was fitted to a second order reaction equation such that the rate constant k is the slope of ln([A][B0]/[B][A0]), where [A0] and [B0] are the initial concentrations of the compound (200 μM) and TNB^2− (100 μM) respectively, and [A] and [B] are the remaining concentrations as a function of time, as determined from the spectrometric measurement. Linear regression using Prism® software was performed to fit the rate against the first four hours of measurements.
In order to estimate the influence of the various lipophilic moieties on “warhead” reactivity [Flanagan et al., J Med Chem 2014, 57:10072-10079; Lonsdale et al., J Chem Inf Model 2017, 57:3124-3137; Dahal et al., Medchemcomm 2016, 7:864-872], the thiol reactivity of the top ten binders of the second and third generation was assessed using a high-throughput assay previously applied to the entire fragment library, as described in Resnick et al. [J Am Chem Soc 2019, 141:8951-8968]. In brief, the second-order rate constant was evaluated for a model thiol, which reflects trends in general reactivity towards thiol groups.

[2] = target: T1, catalytic domain of Pin1 (Homo sapiens, UniProt Q13526); experiment: Intact protein LC/MS labeling of Pin1; assay type: binding
T1 construct: The purified catalytic domain of Pin1 was incubated with the fragment library
T1 sequence (Q13526 52-163 limits assumed): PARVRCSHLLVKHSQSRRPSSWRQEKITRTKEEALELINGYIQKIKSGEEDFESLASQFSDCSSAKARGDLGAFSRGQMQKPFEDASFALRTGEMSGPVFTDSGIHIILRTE
Experimental: 993 compounds were transferred to a 384-well plate working copy by combining 0.5 μl of 20 mM stock solution of four or five compounds per well. The catalytic domain of Pin1 (2 μM) in 20 mM Tris, 75 mM NaCl, pH 7.5 was incubated with 200 μM for each compound and moderately shaken for 24 hours at 4° C. The reaction was stopped by the addition of formic acid to 0.4% (v/v) final concentration.
Liquid chromatography/mass spectroscopy runs were performed on an Acquity™ UPLC® H-class system (Waters) in positive ion mode using electrospray ionization (ESI). UPLC separation was performed on a C4 column (300 Å, 1.7 μM, […]). The column was held at 40° C., and the autosampler at 10° C. Mobile solution A was 0.1% formic acid in water and mobile phase B was 0.1% formic acid in acetonitrile. Run flow was 0.4 ml/minute; and a gradient of 20% B for 2 minutes, increasing linearly to 60% B for 3 minutes, holding at 60% B for 1.5 minutes, changing to 0% B in 0.1 minute and holding at 0% for 1.4 minutes, was used. Desolvation temperature was 500° C. with a flow rate of 1000 liters/hour. The capillary voltage was 0.69 kV and cone voltage 46 V. Raw data was processed using OpenLynx™ software and deconvoluted using the MaxEnt tool. Labeling assignment was performed as described in Resnick et al. [J Am Chem Soc 2019, 141:8951-8968].
For the screening 2 μl of each of the 448 click products as 50 μM DMSO stocks were transferred into a 384-well plate working plate. 48 μl of catalytic domain of Pin1 (2 μM) in 20 mM Tris (pH 7.5) with 75 mM NaCl were added and moderately shaken and incubated for 15 minutes at room temperature. The reaction was stopped by the addition of formic acid to 0.4% (v/v) final concentration (20 μl). The mixtures were analyzed by liquid chromatography/mass spectroscopy analogously to the electrophile library incubations described herein. Hits were retrospectively analyzed by liquid chromatography/mass spectroscopy (LC-MS) to ensure reaction completion.
For each measured well, processed peaks were searched to match the mass of unlabeled protein or common small adducts of the unlabeled protein, which were found in the control sample or labeled protein. Labeling percentage for a compound was determined as the labeling of a specific compound divided by the overall detected protein species. Peaks whose mass could not be assigned were discarded from the overall labeling calculation. Data was analyzed using a python script for processing the MaxEnt-deconvoluted spectra. Peaks were normalized from ion counts to percentages, where the highest peak is defined as 100%. The unlabeled protein mass is deduced from a reference well that contains just the protein.
The purified catalytic domain of Pin1 was incubated with the fragment library (2 μM protein, 200 μM compound; 24 hours at 4° C.), followed by intact protein liquid chromatography/mass-spectrometry (LC/MS) to identify and quantify compound labeling. FIG. 1 depicts an example of a compound identified in this manner.
Based on the docking predictions, a total of 26 compounds that featured a range of small or bulky aliphatic, arylic, biphenylic or heterocyclic side-chains (structures depicted in FIG. 5), were synthesized or purchased. In order to identify potent binders, the irreversible labeling efficiency of these second-generation compounds was assessed alongside the original screening hits under more stringent conditions, with a 1:1 ratio of protein to compound (2 μM compound; 1 hour at room temperature).
For further optimization of the lipophilic moiety, an alkyne side chain-bearing analog was prepared, which was derivatized with 448 different azides using copper-catalyzed azide-alkyne cycloaddition (CuAAC).

[3] = 2 μM Pin1 with 2 μM test compound for 15 minutes at room temperature
[4] = 2 μM Pin1 with 2 μM test compound for 1 hour at room temperature
[5] = 2 μM Pin1 with 200 μM test compound for 24 hours at 4° C.

## COC(=O)c1ccc(-n2cc(CN(C(=O)CCl)C3CCS(=O)(=O)C3)nn2)cc1 (stereo not drawn) [Compound P1-01-B11]
[1]
  Reactivity Log k: −6.86
  Reactivity k: 1.37e-07 M⁻¹ s⁻¹
[2]; [3]
  Labeling [%]: 89%

## O=C(CCl)N(Cc1cn(-c2ccc(CO)c(F)c2)nn1)C1CCS(=O)(=O)C1 (stereo not drawn) [Compound P1-01-F08]
[1]
  Reactivity Log k: −5.88
  Reactivity k: 1.32e-06 M⁻¹ s⁻¹
[2]; [3]
  Labeling [%]: 64%

## O=C(CCl)N(Cc1cn(-c2cccc(Cl)c2)nn1)C1CCS(=O)(=O)C1 (stereo not drawn) [Compound P1-01-G10]
[1]
  Reactivity Log k: −6.92
  Reactivity k: 1.2e-07 M⁻¹ s⁻¹
[2]; [3]
  Labeling [%]: 67%

## CC(=O)c1ccc(-n2cc(CN(C(=O)CCl)C3CCS(=O)(=O)C3)nn2)cc1 (stereo not drawn) [Compound P1-02-B04]
[1]
  Reactivity Log k: −5.90
  Reactivity k: 1.26e-06 M⁻¹ s⁻¹
[2]; [3]
  Labeling [%]: 62%

## O=C(CCl)N(Cc1cn(-c2cc(Br)ccc2O)nn1)C1CCS(=O)(=O)C1 (stereo not drawn) [Compound P1-02-E11]
[1]
  Reactivity Log k: −5.98
  Reactivity k: 1.04e-06 M⁻¹ s⁻¹
[2]; [3]
  Labeling [%]: 70%

## O=C(CCl)N(Cc1cn(-c2ccc(CO)cc2)nn1)C1CCS(=O)(=O)C1 (stereo not drawn) [Compound P1-02-H08]
[1]
  Reactivity Log k: −5.88
  Reactivity k: 1.32e-06 M⁻¹ s⁻¹
[2]; [3]
  Labeling [%]: 73%

## O=C(CCl)N(Cc1cn(-c2ccc(O)cc2)nn1)C1CCS(=O)(=O)C1 (stereo not drawn) [Compound P1-03-C04]
[1]
  Reactivity Log k: −6.42
  Reactivity k: 3.78e-07 M⁻¹ s⁻¹
[2]; [3]
  Labeling [%]: 72%

## CC(=O)c1cccc(-n2cc(CN(C(=O)CCl)C3CCS(=O)(=O)C3)nn2)c1 (stereo not drawn) [Compound P1-03-D08]
[1]
  Reactivity Log k: −5.92
  Reactivity k: 1.2e-06 M⁻¹ s⁻¹
[2]; [3]
  Labeling [%]: 54%

## NS(=O)(=O)c1ccc(-n2cc(CN(C(=O)CCl)C3CCS(=O)(=O)C3)nn2)cc1 (stereo not drawn) [Compound P1-03-G07]
[1]
  Reactivity Log k: −5.86
  Reactivity k: 1.37e-06 M⁻¹ s⁻¹
[2]; [3]
  Labeling [%]: 73%

## COc1ccc(-n2cc(CN(C(=O)CCl)C3CCS(=O)(=O)C3)nn2)cc1 (stereo not drawn) [Compound P1-04-B02]
[1]
  Reactivity Log k: −5.76
  Reactivity k: 1.73e-06 M⁻¹ s⁻¹
[2]; [3]
  Labeling [%]: 69%

## CCN(C(=O)CCl)C1CCS(=O)(=O)C1 (stereo not drawn) [PCM-0102105]
[1]
  Reactivity Log k: −6.96
  Reactivity k: 1.1e-07 M⁻¹ s⁻¹
[2]; [4]
  Labeling [%]: 0%
[2]; [5]
  Labeling [%]: 85%

## O=C(CCl)NC1CCS(=O)(=O)C1 (stereo not drawn) [PCM-0102138]
[1]
  Reactivity Log k: −6.92
  Reactivity k: 1.2e-07 M⁻¹ s⁻¹
[2]; [4]
  Labeling [%]: 0%
[2]; [5]
  Labeling [%]: 56%

## CC1(NC(=O)CCl)CCS(=O)(=O)C1 (stereo not drawn) [PCM-0102230]
[1]
  Reactivity Log k: −7.05
  Reactivity k: 8.87e-08 M⁻¹ s⁻¹
[2]; [4]
  Labeling [%]: 0%
[2]; [5]
  Labeling [%]: 87%

## O=C(CCl)N(C1CCCC1)C1CCS(=O)(=O)C1 (stereo not drawn) [PCM-0102313]
[1]
  Reactivity Log k: −6.97
  Reactivity k: 1.07e-07 M⁻¹ s⁻¹
[2]; [5]
  Labeling [%]: 83%

## O=C(CCl)N(c1ccccc1)C1C=CS(=O)(=O)C1 (stereo not drawn) [PCM-0102372]
[2]; [5]
  Labeling [%]: 100%

## Cc1ccc(N(C(=O)CCl)C2C=CS(=O)(=O)C2)cc1 (stereo not drawn) [PCM-0102539]
[2]; [5]
  Labeling [%]: 100%

## Cc1cccc(N(C(=O)CCl)C2C=CS(=O)(=O)C2)c1 (stereo not drawn) [PCM-0102579]
[2]; [5]
  Labeling [%]: 100%

## O=C(CCl)N(c1ccccc1)C1CCS(=O)(=O)C1 (stereo not drawn) [PCM-0102755]
[1]
  Reactivity Log k: −6.81
  Reactivity k: 1.54e-07 M⁻¹ s⁻¹
[2]; [5]
  Labeling [%]: 83%

## O=C(CCl)N(C1CCCCC1)C1CCS(=O)(=O)C1 (stereo not drawn) [PCM-0102760]
[1]
  Reactivity Log k: −7.00
  Reactivity k: 1e-07 M⁻¹ s⁻¹
[2]; [5]
  Labeling [%]: 100%

## O=C(CCl)N(C1CC1)C1CCS(=O)(=O)C1 (stereo not drawn) [PCM-0102832]
[1]
  Reactivity Log k: −7.22
  Reactivity k: 6.02e-08 M⁻¹ s⁻¹
[2]; [5]
  Labeling [%]: 72%

## O=C(CCl)N(c1ccc(F)cc1)C1C=CS(=O)(=O)C1 (stereo not drawn) [PCM-0102868]
[2]; [5]
  Labeling [%]: 100%

## O=C(CCl)NCC1CCS(=O)(=O)C1 (stereo not drawn) [PCM-0102896]
[2]; [5]
  Labeling [%]: 42%

## Cc1ccc(N(C(=O)CCl)C2C=CS(=O)(=O)C2)cc1C (stereo not drawn) [PCM-0103082]
[2]; [5]
  Labeling [%]: 69%

## CC(c1ccccc1)N(C(=O)CCl)C1CCS(=O)(=O)C1 (stereo not drawn) [Pin1-2-2]
[1]
  Reactivity Log k: −7.09
  Reactivity k: 8.06e-08 M⁻¹ s⁻¹
[2]; [4]
  Labeling [%]: 27%

## O=C(CCl)N(Cc1cccc(F)c1)C1CCS(=O)(=O)C1 (stereo not drawn) [Pin1-2-5]
[1]
  Reactivity Log k: −6.88
  Reactivity k: 1.31e-07 M⁻¹ s⁻¹
[2]; [4]
  Labeling [%]: 24%

## O=C(CCl)N(Cc1ccccc1-c1ccccc1)C1CCS(=O)(=O)C1 (stereo not drawn) [Pin1-2-10]
[1]
  Reactivity Log k: −6.89
  Reactivity k: 1.3e-07 M⁻¹ s⁻¹
[2]; [4]
  Labeling [%]: 25%

## O=C(CCl)N(Cc1cccc(Cl)c1)C1CCS(=O)(=O)C1 (stereo not drawn) [Pin1-2-11]
[1]
  Reactivity Log k: −6.94
  Reactivity k: 1.15e-07 M⁻¹ s⁻¹
[2]; [4]
  Labeling [%]: 19%

## O=C(CCl)N(Cc1ccccc1-c1cccc(C(F)(F)F)c1)C1CCS(=O)(=O)C1 (stereo not drawn) [Pin1-3-8]
[1]
  Reactivity Log k: −7.09
  Reactivity k: 8.22e-08 M⁻¹ s⁻¹
[2]; [4]
  Labeling [%]: 23%

## O=C(CCl)N(CC1CCCC1)C1CCS(=O)(=O)C1 (stereo not drawn) [Pin1-3-14, 2-chloro-N-(sulfolan-3-yl)-N-(cyclopentylmethyl)acetamide]
[1]
  Reactivity Log k: −7.15
  Reactivity k: 7.03e-08 M⁻¹ s⁻¹

## CC(C)CN(C(=O)CCl)C1CCS(=O)(=O)C1 (stereo not drawn) [Pin1-3-15, 2-chloro-N-(sulfolan-3-yl)-N-isobutylacetamide]
[1]
  Reactivity Log k: −7.11
  Reactivity k: 7.77e-08 M⁻¹ s⁻¹
[2]; [4]
  Labeling [%]: 21%

## CC(C)(C)CN(C(=O)CCl)C1(C)CCS(=O)(=O)C1 (stereo not drawn) [Pin1-18]
[1]
  Reactivity Log k: −7.77
  Reactivity k: 1.69e-08 M⁻¹ s⁻¹

## CCCN(C(=O)CCl)C1CCS(=O)(=O)C1 (stereo not drawn) [Pin1-028]
[1]
  Reactivity Log k: −6.80
  Reactivity k: 1.59e-07 M⁻¹ s⁻¹
[2]; [4]
  Labeling [%]: 16%

## CCC(C)N(C(=O)CCl)C1CCS(=O)(=O)C1 (stereo not drawn) [Pin1-053]
[1]
  Reactivity Log k: −6.91
  Reactivity k: 1.24e-07 M⁻¹ s⁻¹
[2]; [4]
  Labeling [%]: 28%

## O=C(CCl)N(Cc1ccccc1)C1CCS(=O)(=O)C1 (stereo not drawn) [Pin1-437]
[1]
  Reactivity Log k: −6.82
  Reactivity k: 1.51e-07 M⁻¹ s⁻¹
